Measurements: US11214803B2, “Modulators of YAP1 expression” (Ionis Pharmaceuticals, Inc., priority 2019, dated 2022)
Strand notation (5' to 3'): a small letter for the sugar, then the base; units joined by * are phosphorothioate-linked, units joined directly phosphodiester-linked; [ ] holds rarer units or linkages, { } end groups; capitals alone tell only the bases. e = 2'-O-(2-methoxyethyl) (MOE); k = constrained ethyl (cEt); [5mC] = 5-methylcytosine; d = 2'-deoxy (DNA); m = 2'-O-methyl

test system: Yap1 mRNA; test: Antisense inhibition of human Yap1 in SNU-449 cells by modified oligonucleotides, single dose (Example 5, RTS36584); format: cell-based; conditions: Table 39; SNU-449 cells, 10,000 cells per well, free uptake, 2,000 nM oligonucleotide, approx. 48 hours; RTS36584; normalized to RIBOGREEN; Yap1 mRNA relative to untreated control
In short: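 Values are Yap1 mRNA as percent of untreated control cells, measured by quantitative real-time RT-PCR using RTS36584 and normalised to total RNA by RIBOGREEN. Cells were SNU-449, dosed by free uptake at 2,000 nM for approximately 48 hours.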

Substance	YAP1 (% UTC)
1198417 (k[5mC]*dA*dG*dA*dT*dT*dT*dA*dG*dG*dA*kT*eG*k[5mC]*eA*kT; antisense) [Compound 1198417]	40 % UTC
1198375 (kG*dG*dA*dA*dA*dT*dT*dG*dT*d[5mC]*dT*k[5mC]*eA*kT*eG*k[5mC]; antisense) [Compound 1198375]	22 % UTC
1198401 (kT*dT*dA*dA*dG*d[5mC]*dA*d[5mC]*dT*dT*dT*kT*eA*k[5mC]*eA*kT; antisense) [Compound 1198401]	63 % UTC
1198424 (k[5mC]*dT*d[5mC]*dT*dT*dA*dT*dA*dT*dG*dG*kT*eT*kT*eT*kG; antisense) [Compound 1198424]	15 % UTC
1198422 (k[5mC]*dT*dT*dA*dT*dA*dT*dG*dG*dT*dT*kT*eT*kG*eT*kG; antisense) [Compound 1198422]	18 % UTC

same assay, conditions: Table 40 (separate experiment); SNU-449 cells, 10,000 cells per well, free uptake, 2,000 nM oligonucleotide, approx. 48 hours; RTS36584; normalized to RIBOGREEN; Yap1 mRNA relative to untreated control

Substance	YAP1 (% UTC)
1198720 (kT*eG*kG*dA*dA*dA*dT*dT*dG*dT*d[5mC]*dT*e[5mC]*eA*kT*kG; antisense) [Compound 1198720]	21 % UTC

same assay, conditions: Table 41; SNU-449 cells, 10,000 cells per well, free uptake, 2,000 nM modified oligonucleotide, approximately 48 hours; RTS36584; normalized to RIBOGREEN; Yap1 mRNA relative to untreated control cells

Substance	YAP1 (% UTC)
1198673 (antisense kG*kA*dT*dT*dT*dA*dG*dG*dA*dT*dG*d[5mC]*kA*eT*kG*eG) [Compound 1198673]	10 % UTC

same assay, conditions: Table 42 (separate experiment); SNU-449 cells, 10,000 cells per well, free uptake, 2,000 nM modified oligonucleotide, approximately 48 hours; RTS36584; normalized to RIBOGREEN; Yap1 mRNA relative to untreated control cells

Substance	YAP1 (% UTC)
1198236 (kG*kT*dG*d[5mC]*dT*dT*dT*dG*dG*dA*dA*eG*eA*eT*k[5mC]*kT) [Compound 1198236]	24 % UTC
1198707 (kA*kA*dG*dT*dA*dA*dG*dG*dT*dT*dT*d[5mC]*k[5mC]*e[5mC]*kA*eG; antisense) [Compound 1198707]	31 % UTC

same assay, conditions: Table 43 experiment; SNU-449 cells, 10,000 cells per well, free uptake, 2,000 nM, approximately 48 hours; RTS36584; Yap1 mRNA normalized to RIBOGREEN, relative to untreated control cells

Substance	YAP1 (% UTC)
1095595 (antisense k[5mC]*kA*d[5mC]*dT*dG*dA*dG*dG*dT*dA*dT*eA*eA*e[5mC]*kT*kG) [Compound 1095595]	63 % UTC
1198275 (kT*kA*dA*dG*dG*dT*dT*dT*d[5mC]*d[5mC]*d[5mC]*eA*eG*eA*kT*kT; antisense) [Compound 1198275]	52 % UTC
1198279 (k[5mC]*kT*dA*dA*dG*dT*dA*dA*dG*dG*dT*eT*eT*e[5mC]*k[5mC]*k[5mC]; antisense) [Compound 1198279]	43 % UTC

same assay, conditions: Table 44 experiment; SNU-449 cells, 10,000 cells per well, free uptake, 2,000 nM, approximately 48 hours; RTS36584; Yap1 mRNA normalized to RIBOGREEN, relative to untreated control cells

Substance	YAP1 (% UTC)
1198519 (kG*kT*dA*dA*dT*dA*dT*dT*dG*d[5mC]*dA*eA*kT*e[5mC]*kT*eG; antisense) [Compound 1198519]	20 % UTC
1198477 (antisense kG*kA*dG*dG*dT*dA*dT*dA*dA*d[5mC]*dT*eG*kG*eG*k[5mC]*eA) [Compound 1198477]	47 % UTC
1198492 (antisense kG*k[5mC]*dT*dT*dT*dG*dG*dA*dA*dG*dA*eT*k[5mC]*eT*kG*eA) [Compound 1198492]	15 % UTC
1198899 (kA*kG*dT*dA*dT*dG*dT*dG*dG*d[5mC]*dA*kA*dT*kA*dA*kT) [Compound 1198899]	75 % UTC
1198901 (kT*kA*dG*dA*dG*dT*dA*dT*dG*dT*dG*kG*d[5mC]*kA*dA*kT; antisense) [Compound 1198901]	28 % UTC
1198526 (kA*kA*dG*dT*dG*dT*dA*dT*dG*dT*d[5mC]*eA*kG*eA*kA*eG; antisense) [Compound 1198526]	2 % UTC
1198515 (kA*kT*dT*dG*d[5mC]*dA*dA*dT*d[5mC]*dT*dG*eT*k[5mC]*eT*kG*eA; antisense) [Compound 1198515]	44 % UTC
1198508 (k[5mC]*kT*dT*dA*dT*dA*dT*dG*dG*dT*dT*eT*kT*eG*kT*eG; antisense) [Compound 1198508]	22 % UTC
1198536 (kT*kA*dA*dG*dT*dA*dA*dG*dG*dT*dT*eT*k[5mC]*e[5mC]*k[5mC]*eA; antisense) [Compound 1198536]	20 % UTC

same assay, conditions: Table 45; Yap1 mRNA as percent of untreated control, SNU-449 cells, single dose

Substance	YAP1 (% UTC)
1198919 (A_{ks}G^{m}C_{ds}A_{ds}^{m}C_{ds}T_{ds}T_{ds}T_{ds}T_{ds}A_{ds}^{m}C_{ds}A_{ks}T_{ds}T_{ks}A_{ds}G_{k}; modified gapmer, phosphorothioate, as printed in the source, key not given here) [Compound 1198919]	60 % UTC
1198953 (kG*kT*dA*dA*dT*dA*dT*dT*dG*d[5mC]*dA*kA*dT*k[5mC]*dT*kG; antisense) [Compound 1198953]	58 % UTC

same assay, conditions: Table 46; Yap1 mRNA as percent of untreated control, SNU-449 cells, single dose

Substance	YAP1 (% UT)
1198832 (kG*k[5mC]*dA*d[5mC]*dT*dT*dT*dT*dA*d[5mC]*dA*kT*eT*kA*eG*kG; antisense) [Compound 1198832]	20 % UT

same assay, conditions: Table 48; Yap1 mRNA level relative to untreated control; modified oligonucleotides targeting SEQ ID NO.: 1 and 2

Substance	YAP1 (% UT)
1197203 (antisense kA*kA*k[5mC]*dT*d[5mC]*dT*dT*dA*dT*dA*dT*dG*dG*kT*kT*kT) [Compound 1197203]	68 % UT
1198309 (k[5mC]*kT*kT*dT*dT*dA*d[5mC]*dA*dT*dT*dA*dG*kG*eA*kA*e[5mC]; antisense) [Compound 1198309]	85 % UT
1198294 (kA*kG*kA*dG*dT*dA*dT*dG*dT*dG*dG*d[5mC]*kA*eA*kT*eA; antisense) [Compound 1198294]	13 % UT
1198288 (kG*kA*kA*dA*dT*dT*dG*dT*d[5mC]*dT*d[5mC]*dA*kT*eG*k[5mC]*e[5mC]; antisense) [Compound 1198288]	10 % UT
1198285 (kA*kT*kT*dG*dT*d[5mC]*dT*d[5mC]*dA*dT*dG*d[5mC]*k[5mC]*eT*kT*eA; antisense) [Compound 1198285]	13 % UT

same assay, conditions: Table 49; Yap1 mRNA level relative to untreated control; modified oligonucleotides targeting SEQ ID NO.: 1 and 2

Substance	YAP1 (% UT)
1198365 (k[5mC]*kT*kA*dA*dG*dT*dA*dA*dG*dG*dT*dT*kT*e[5mC]*k[5mC]*e[5mC]; antisense) [Compound 1198365]	13 % UT
1198550 (antisense kA*kT*kA*dT*dG*dG*dA*dA*dA*dT*dT*dG*kT*k[5mC]*kT*e[5mC]) [Compound 1198550]	17 % UT
1198357 (kT*kT*kA*dA*dA*dG*dT*dG*dT*dA*dT*dG*kT*e[5mC]*kA*eG; antisense) [Compound 1198357]	21 % UT
1198305 (kG*kA*kG*dG*dT*dA*dT*dA*dA*d[5mC]*dT*dG*kG*eG*k[5mC]*eA; antisense) [Compound 1198305]	78 % UT
1198363 (kA*kA*kG*dT*dA*dA*dG*dG*dT*dT*dT*d[5mC]*k[5mC]*e[5mC]*kA*eG; antisense) [Compound 1198363]	55 % UT
1198569 (antisense CACTTTTACATTAGGA; chemistry not fully specified) [Compound 1198569]	14 % UT

same assay, conditions: Table 50; Yap1 mRNA remaining as percent of untreated control (UT), SNU-449 cells, single dose

Substance	YAP1 (% UT)
1198606 (antisense kT*kG*kT*dA*dA*dT*dA*dT*dT*dG*d[5mC]*dA*kA*kT*k[5mC]*eT) [Compound 1198606]	25 % UT
1197229 (antisense kG*kG*kA*dA*mA*dT*dT*dG*dT*d[5mC]*dT*d[5mC]*dA*kT*kG*k[5mC]) [Compound 1197229]	21 % UT
1197292 (kA*k[5mC]*kT*dT*mU*dT*dA*d[5mC]*dA*dT*dT*dA*dG*kG*kA*kA; antisense) [Compound 1197292]	84 % UT
1095435 (antisense kA*k[5mC]*kT*dG*dA*dG*dG*dT*dA*dT*dA*dA*k[5mC]*kT*kG*eG) [Compound 1095435]	39 % UT
1197282 (kA*kA*kA*dT*mU*dG*dT*d[5mC]*dT*d[5mC]*dA*dT*dG*k[5mC]*k[5mC]*kT) [Compound 1197282]	40 % UT
1198624 (kA*k[5mC]*kT*dA*dA*dG*dT*dA*dA*dG*dG*dT*kT*kT*k[5mC]*e[5mC]; antisense) [Compound 1198624]	20 % UT

same assay, conditions: Table 51; Yap1 mRNA remaining as percent of untreated control (UT), SNU-449 cells, single dose

Substance	YAP1 (% UT)
1197268 (kA*kA*kG*dT*mG*dT*dA*dT*dG*dT*d[5mC]*dA*dG*kA*kA*kG) [Compound 1197268]	25 % UT
1197299 (kA*kG*kG*dA*mU*dG*d[5mC]*dA*dT*dG*dG*dT*dT*kT*kT*kT; antisense) [Compound 1197299]	41 % UT
1197300 (kG*kA*kT*dT*mU*dA*dG*dG*dA*dT*dG*d[5mC]*dA*kT*kG*kG; antisense) [Compound 1197300]	42 % UT

same assay, conditions: Table 52; Yap1 mRNA, modified oligonucleotides targeting SEQ ID NO: 1 and 2

Substance	YAP1 (% UT)
1200858 (kA*kA*kG*dT*dG*mU*dA*dT*dG*dT*d[5mC]*dA*dG*kA*kA*kG; antisense) [Compound 1200858]	10 % UT
1200802 (TATAACTGGGCAAATT; cEt gapmer, phosphorothioate, 5-methylcytosine, chemistry not fully specified) [Compound 1200802]	89 % UT

same assay, conditions: Yap1 mRNA, percent of untreated control; modified oligonucleotides targeting SEQ ID NO: 1 and 2; Table 47

Substance	YAP1 (% UT)
1096369 (antisense kG*kT*kG*d[5mC]*dT*dT*dT*dG*dG*dA*dA*dG*dA*kT*k[5mC]*kT) [Compound 1096369]	45 % UT
